# Laboratory results as given in patent US9663510B2, “Substituted triazolopyridines and their use as TTK inhibitors” (Bayer Intellectual Property GmbH, priority 2011, dated 2017).
# Like-named read-outs stand apart in the source and are kept apart here.
# Key:
# [1] = Metabolic stability in vitro, dog liver microsomes (calculation of Fmax); assay type: in vitro ADME; details: maximal oral bioavailability calculated from microsomal half-life, 1 μM
# Protocol: (§1) The metabolic stability of test compounds in vitro was determined by incubating them at 1 μM with a suspension liver microsomes in 100 mM phosphate buffer, pH7.4 (NaH2PO4×H2O+Na2HPO4×2H2O) at a protein concentration of 0.5 mg/mL and at 37° C. The reaction was activated by adding a co-factor mix containing 1.2 mg NADP, 3 IU glucose-6-phosphate dehydrogenase, 14.6 mg glucose-6-phosphate and 4.9 mg MgCl2 in phosphate buffer, pH 7.4. Organic solvent in the incubations was limited to <0.2% dimethylsulfoxide (DMSO) and <1% methanol. During incubation, the microsomal suspensions were continuously shaken and aliquots were taken at 2, 8, 16, 30, 45 and 60 min, to which equal volumes of cold methanol were immediately added. Samples were frozen at −20° C. over night, subsequently centrifuged for 15 minutes at 3000 rpm and the supernatant was analyzed with an Agilent 1200 HPLC-system with LCMS/MS detection.
# (§2) The half-life of a test compound was determined from the concentration-time plot. From the half-life the intrinsic clearances were calculated. Together with the additional parameters liver blood flow, specific liver weight and microsomal protein content the hepatic in vivo blood clearance (CL) and the maximal oral bioavailability (Fmax) were calculated for the different species. The following parameter values were used: Liver blood flow—1.3 L/h/kg (human), 2.1 L/h/kg (dog), 4.2 L/h/kg (rat); specific liver weight—21 g/kg (human), 39 g/kg (dog), 32 g/kg (rat); microsomal protein content—40 mg/g.
# (§3) With the described assay only phase-I metabolism of microsomes is reflected, e.g. typically oxidoreductive reactions by cytochrome P450 enzymes and flavin mono-oxygenases (FMO) and hydrolytic reactions by esterases (esters and amides).
# [2] = target: human kinase Mps-1 (Homo sapiens (Human), UniProt P33981); experiment: Mps-1 kinase assay (TR-FRET); assay type: biochemical
# [3] = system: HeLa human cervical tumor cells; experiment: HeLa cell proliferation assay (crystal violet); assay type: cell-based; details: 96 h, 4 days incubation, read-out: Inhibition of cell proliferation, cell Line: HeLa IC50
# [4] = Metabolic stability in vitro, rat liver microsomes (calculation of Fmax); assay type: in vitro ADME; details: maximal oral bioavailability calculated from microsomal half-life, 1 μM
# Protocol: as §1, §2, §3
# [5] = read-out: Mps-1 Inhibition, IC50 (Assay with 10 μM ATP), 10 μM ATP
# [6] = read-out: Mps-1 Inhibition, IC50 (Assay with 2 mM ATP), 2 mM ATP
# Chain of human kinase Mps-1 (P33981 whole entry): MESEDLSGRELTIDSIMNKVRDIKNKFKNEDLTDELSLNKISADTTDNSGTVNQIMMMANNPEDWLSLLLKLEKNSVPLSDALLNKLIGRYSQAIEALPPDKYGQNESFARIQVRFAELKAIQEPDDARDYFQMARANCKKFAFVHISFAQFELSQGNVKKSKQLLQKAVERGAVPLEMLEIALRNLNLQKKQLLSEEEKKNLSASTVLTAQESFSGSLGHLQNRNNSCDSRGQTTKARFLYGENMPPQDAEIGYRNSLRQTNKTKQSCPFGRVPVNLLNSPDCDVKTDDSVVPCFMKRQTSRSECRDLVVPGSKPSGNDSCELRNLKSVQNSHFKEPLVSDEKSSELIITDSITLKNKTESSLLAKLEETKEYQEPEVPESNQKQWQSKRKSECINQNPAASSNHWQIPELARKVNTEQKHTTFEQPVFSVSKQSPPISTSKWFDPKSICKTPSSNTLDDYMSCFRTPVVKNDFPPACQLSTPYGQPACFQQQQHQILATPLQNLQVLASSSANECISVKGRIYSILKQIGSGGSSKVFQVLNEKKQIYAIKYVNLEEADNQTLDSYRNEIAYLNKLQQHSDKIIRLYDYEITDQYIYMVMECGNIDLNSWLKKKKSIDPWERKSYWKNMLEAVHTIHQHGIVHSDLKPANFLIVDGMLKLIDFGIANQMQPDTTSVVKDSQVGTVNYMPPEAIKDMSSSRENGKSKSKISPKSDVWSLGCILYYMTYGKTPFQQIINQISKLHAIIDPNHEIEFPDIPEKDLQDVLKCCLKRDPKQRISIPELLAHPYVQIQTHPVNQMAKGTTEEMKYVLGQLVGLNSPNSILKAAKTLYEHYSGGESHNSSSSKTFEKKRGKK
SMILES,"IC50 [2, 5]","IC50 [2, 6]",IC50 [3],also measured
COc1cc(N2CCOC2=O)ccc1Nc1nc2ccc(-c3ccc(NC(=O)Cc4ccc(F)cc4)cc3)cn2n1 [reference compound],,,,Dog liver microsomes; Fmax [%] [1]: 17%
"COc1cc(C(=O)N2CCCC2)ccc1Nc1nc2ccc(-c3ccc(NC(=O)[C@H](C)c4ccc(F)cc4)cc3)cn2n1 [Example01.13, (2R)-2-(4-fluorophenyl)-N-[4-(2-{[2-methoxy-4-(pyrrolidin-1-ylcarbonyl)phenyl]amino}[1,2,4]triazolo[1,5-a]pyridin-6-yl)phenyl]propanamide]",< 1 nM,< 1 nM,< 400 nM,
N#Cc1ccccc1Nc1nc2ccc(-c3ccc(NC(=O)C(F)c4ccccc4)cc3)cn2n1 (centres unmarked) [reference compound],,,,Rat liver microsomes; Fmax [%] [4]: 26%
CS(=O)(=O)c1ccc(Nc2nc3ccc(-c4ccc(NC(=O)Cc5ccc(F)cc5)cc4)cn3n2)c(OCC(F)(F)F)c1 [reference compound],,,,Dog liver microsomes; Fmax [%] [1]: 25%
CCOc1cc(S(C)(=O)=O)ccc1Nc1nc2ccc(-c3ccc(C(=O)NCc4ccc(F)cc4)c(C)c3)cn2n1 [reference compound],,,,Dog liver microsomes; Fmax [%] [1]: 12%
N#Cc1c(F)cccc1Nc1nc2ccc(-c3ccc(NC(=O)Cc4ccc(F)cc4)cc3)cn2n1 [reference compound],,,,Dog liver microsomes; Fmax [%] [1]: 15%
COc1cc(S(C)(=O)=O)ccc1Nc1nc2ccc(-c3ccc(NC(=O)Cc4ccc(F)cc4)cc3)cn2n1 [reference compound],,,,Dog liver microsomes; Fmax [%] [1]: 10%
"C[C@@H](C(=O)Nc1ccc(-c2ccc3nc(Nc4ccc(C(=O)N5CC(F)C5)cc4OCC(F)(F)F)nn3c2)cc1)c1ccc(F)cc1 [Example01.14, (2R)—N-{4-[2-({4-[(3-fluoroazetidin-1-yl)carbonyl]-2-(2,2,2-trifluoroethoxy)phenyl}amino)[1,2,4]triazolo[1,5-a]pyridin-6-yl]phenyl}-2-(4-fluorophenyl)propanamide]",< 1 nM,< 1 nM,,
"COc1cc(C(=O)N(C)C)ccc1Nc1nc2ccc(-c3ccc(NC(=O)[C@H](C)c4ccc(F)cc4)cc3)cn2n1 [Example01.12, 4-{[6-(4-{[(2R)-2-(4-fluorophenyl)propanoyl]amino}phenyl)[1,2,4]triazolo[1,5-a]pyridin-2-yl]amino}-3-methoxy-N,N-dimethylbenzamide]",< 1 nM,< 1 nM,< 200 nM,
COC(C(=O)Nc1ccc(-c2ccc3nc(Nc4ccccc4C#N)nn3c2)cc1)c1ccccc1 (centres unmarked) [reference compound],,,,Rat liver microsomes; Fmax [%] [4]: 19%
"C[C@@H](C(=O)Nc1ccc(-c2ccc3nc(Nc4ccc(C(=O)N5CC(O)C5)cc4OCC(F)(F)F)nn3c2)cc1)c1ccc(F)cc1 [Example01.15, (2R)-2-(4-fluorophenyl)-N-{4-[2-({4-[(3-hydroxyazetidin-1-yl)carbonyl]-2-(2,2,2-trifluoroethoxy)phenyl}amino)[1,2,4]triazolo[1,5-a]pyridin-6-yl]phenyl}propanamide]",< 1 nM,< 1 nM,< 100 nM,
N#Cc1ccccc1Nc1nc2ccc(-c3ccc(NC(=O)C(F)(F)c4ccccc4)cc3)cn2n1 [reference compound],,,,Rat liver microsomes; Fmax [%] [4]: 27%
N#Cc1ccccc1Nc1nc2ccc(-c3ccc(NC(=O)Cc4ccc(F)cc4)cc3)cn2n1 [reference compound],,,,Rat liver microsomes; Fmax [%] [4]: 40%
COc1ccccc1Nc1nc2ccc(-c3ccc(NC(=O)Cc4ccccc4)cc3)cn2n1 [reference compound],,,,Rat liver microsomes; Fmax [%] [4]: 40%
COc1cc(C(=O)NCC(F)(F)F)ccc1Nc1nc2ccc(-c3ccc(NC(=O)Cc4ccc(F)cc4)cc3)cn2n1 [reference compound],,,,Dog liver microsomes; Fmax [%] [1]: 40%
COc1cc(C(=O)N2CCOCC2)ccc1Nc1nc2ccc(-c3ccc(NC(=O)Cc4ccc(F)cc4)cc3)cn2n1 [reference compound],,,,Rat liver microsomes; Fmax [%] [4]: 48%

# Continued, in another order:
"IC50 [2, 5]","IC50 [2, 6]",IC50 [3],SMILES,also measured
< 1 nM,< 1 nM,< 200 nM,"COc1cc(C(=O)N2CC(F)C2)ccc1Nc1nc2ccc(-c3ccc(NC(=O)[C@H](N)c4ccc(F)cc4)cc3)cn2n1 [Example 01.21, (2R)-2-amino-N-{4-[2-({4-[(3-fluoroazetidin-1-yl)carbonyl]-2-methoxyphenyl}amino)[1,2,4]triazolo[1,5-a]pyridin-6-yl]phenyl}-2-(4-fluorophenyl)ethanamide]",
< 1 nM,< 1 nM,< 200 nM,"COc1cc(C(=O)N2CCC2)ccc1Nc1nc2ccc(-c3ccc(NC(=O)[C@H](N)c4ccc(F)cc4)cc3)cn2n1 [Example 01.22, (2R)-2-amino-N-[4-(2-{[4-(azetidin-1-ylcarbonyl)-2-methoxyphenyl]amino}[1,2,4]triazolo[1,5-a]pyridin-6-yl)phenyl]-2-(4-fluorophenyl)ethanamide]",
< 1 nM,,< 100 nM,"C[C@@H](C(=O)Nc1ccc(-c2ccc3nc(Nc4ccc(C(=O)N5CCCC5)cc4OCC(F)(F)F)nn3c2)cc1)c1ccc(F)cc1 [Example 01.16, (2R)-2-(4-fluorophenyl)-N-[4-(2-{[4-(pyrrolidin-1-ylcarbonyl)-2-(2,2,2-trifluoroethoxyl)phenyl]amino}[1,2,4]triazolo[1,5-a]pyridin-6-yl)phenyl]propanamide]",IC50 ([2]; 2 mM ATP): 1.3 nM
< 1 nM,< 1 nM,< 100 nM,"N[C@@H](C(=O)Nc1ccc(-c2ccc3nc(Nc4ccc(C(=O)N5CC(F)C5)cc4OCC(F)(F)F)nn3c2)cc1)c1ccc(F)cc1 [Example 01.24, (2R)-2-amino-N-{4-[2-({4-[(3-fluoroazetidin-1-yl)carbonyl]-2-(2,2,2-trifluoroethoxyl)phenyl}amino)[1,2,4]triazolo[1,5-a]pyridin-6-yl]phenyl}-2-(4-fluorophenyl)ethanamide]",
< 1 nM,< 1 nM,< 200 nM,"CS(=O)(=O)c1ccc(Nc2nc3ccc(-c4ccc(NC(=O)[C@H](N)c5ccc(F)cc5)cc4)cn3n2)c(OCC(F)(F)F)c1 [Example 01.19, (2R)-2-amino-2-(4-fluorophenyl)-N-[4-(2-{[4-(methylsulfonyl)-2-(2,2,2-trifluoroethoxyl)phenyl]amino}[1,2,4]triazolo[1,5-a]pyridin-6-yl)phenyl]ethanamide]",
< 1 nM,< 1 nM,< 100 nM,"O=C(Nc1ccc(-c2ccc3nc(Nc4ccc(C(=O)N5CC(F)C5)cc4OCC(F)(F)F)nn3c2)cc1)[C@H](CO)c1ccc(F)cc1 [Example 01.18, (2S)—N-{4-[2-({4-[(3-fluoroazetidin-1-yl)carbonyl]-2-(2,2,2-trifluoroethoxyl)phenyl}amino)[1,2,4]triazolo[1,5-a]pyridin-6-yl]phenyl}-2-(4-fluorophenyl)-3-hydroxypropanamide]",
< 1 nM,< 1 nM,< 200 nM,"N[C@@H](C(=O)Nc1ccc(-c2ccc3nc(Nc4ccc(C(=O)N5CCCC5)cc4OCC(F)(F)F)nn3c2)cc1)c1ccc(F)cc1 [Example 01.25, (2R)-2-amino-2-(4-fluorophenyl)-N-[4-(2-{[4-(pyrrolidin-1-ylcarbonyl)-2-(2,2,2-trifluoroethoxyl)phenyl]amino}[1,2,4]triazolo[1,5-a]pyridin-6-yl)phenyl]ethanamide]",
< 1 nM,,< 600 nM,"COc1cc(S(C)(=O)=O)ccc1Nc1nc2ccc(-c3ccc(NC(=O)[C@H](CO)c4ccc(F)cc4)cc3)cn2n1 [Example 01.17, (2S)-2-(4-fluorophenyl)-3-hydroxy-N-[4-(2-{[2-methoxy-4-(methylsulfonyl)phenyl]amino}[1,2,4]triazolo[1,5-a]pyridin-6-yl)phenyl]propanamide]",IC50 ([2]; 2 mM ATP): 4.8 nM
< 1 nM,< 1 nM,< 400 nM,"COc1cc(C(=O)N2CCCC2)ccc1Nc1nc2ccc(-c3ccc(NC(=O)[C@H](N)c4ccc(F)cc4)cc3)cn2n1 [Example 01.23, (2R)-2-amino-2-(4-fluorophenyl)-N-[4-(2-{[2-methoxy-4-(pyrrolidin-1-ylcarbonyl)phenyl]amino}[1,2,4]triazolo[1,5-a]pyridin-6-yl)phenyl]ethanamide]",
< 1 nM,,< 200 nM,"COc1cc(N2CCOC2=O)ccc1Nc1nc2ccc(-c3ccc(NC(=O)[C@H](N)c4ccc(F)cc4)cc3)cn2n1 [Example 01.20, (2R)-2-amino-2-(4-fluorophenyl)-N-[4-(2-{[2-methoxy-4-(2-oxo-1,3-oxazolidin-3-yl)phenyl]amino}[1,2,4]triazolo[1,5-a]pyridin-6-yl)phenyl]ethanamide]",IC50 ([2]; 2 mM ATP): 1.5 nM
